Laboratory results as given in PubChem BioAssay AID330 (DTP/NCI, 2004).
“And” between values parts separate entries of the source, which are not always exact repeats. Equal entries are not always repeated. Toxic doses and inconclusive results are not listed. The calls were made as follows: active = survival T/C of 150% or more; inactive = T/C below 125% in these data.

Tested on: P388 leukemia ip, CD2F1 mice, survival T/C
Test: NCI In Vivo Anticancer Drug Screen. Data for tumor model P388 Leukemia (intraperitoneal) in CD2F1 (CDF1) mice
Conditions: endpoint: median survival time, higher = longer survival
Method in brief: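 Mice carrying the transplanted tumor received test compound or vehicle. Survival was recorded in each group, and the value is the treated-group measurement divided by that of the vehicle-treated control group.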

[1] = dose: 100.0 mg/kg/injection, schedule: Q04DX003 (ip), vehicle: saline
[2] = dose: 200.0 mg/kg/injection, schedule: Q04DX003 (ip), vehicle: saline
[3] = dose: 400.0 mg/kg/injection, schedule: Q04DX003 (ip), vehicle: saline
[4] = dose: 60.0 mg/kg/injection, schedule: Q01DX005 (ip), vehicle: saline with Tween-80
[5] = dose: 50.0 mg/kg/injection, schedule: Q01DX009 (ip), vehicle: saline
[6] = dose: 100.0 mg/kg/injection, schedule: Q01DX009 (ip), vehicle: saline
[7] = dose: 200.0 mg/kg/injection, schedule: Q01DX009 (ip), vehicle: saline
[8] = dose: 120.0 mg/kg/injection, schedule: Q01DX005 (ip), vehicle: saline with Tween-80
[9] = dose: 400.0 mg/kg/injection, schedule: Q01DX009 (ip), vehicle: saline
[10] = dose: 12.5 mg/kg/injection, schedule: Q01DX009 (ip), vehicle: distilled water + Tween-80
[11] = dose: 25.0 mg/kg/injection, schedule: Q01DX009 (ip), vehicle: distilled water + Tween-80
[12] = dose: 50.0 mg/kg/injection, schedule: Q01DX009 (ip), vehicle: distilled water + Tween-80
[13] = dose: 100.0 mg/kg/injection, schedule: Q01DX009 (ip), vehicle: distilled water + Tween-80
[14] = dose: 200.0 mg/kg/injection, schedule: Q01DX009 (ip), vehicle: distilled water + Tween-80
[15] = dose: 50.0 mg/kg/injection, schedule: Q01DX009 (ip), vehicle: saline with Tween-80
[16] = dose: 100.0 mg/kg/injection, schedule: Q01DX009 (ip), vehicle: saline with Tween-80
[17] = dose: 200.0 mg/kg/injection, schedule: Q01DX009 (ip), vehicle: saline with Tween-80
[18] = dose: 25.0 mg/kg/injection, schedule: Q01DX009 (ip), vehicle: water
[19] = dose: 50.0 mg/kg/injection, schedule: Q01DX009 (ip), vehicle: water
[20] = dose: 240.0 mg/kg/injection, schedule: Q01DX005 (ip), vehicle: saline with Tween-80

Measured: T/C

COC(OC)C1(O)CC(C(C)C)OC(=O)N1 (configuration not stated)
inactive: [1] 100 % of control | [2] 108 % of control | [3] 100 % of control

OC1(c2ccc(-c3ccc(-c4ccc(C5(O)C(c6ccccc6)=C(c6ccccc6)C(c6ccccc6)=C5c5ccccc5)cc4)cc3)cc2)C(c2ccccc2)=C(c2ccccc2)C(c2ccccc2)=C1c1ccccc1
inactive: dose: 100.0 mg/kg/injection, schedule: Q04DX003 (ip), vehicle: Klucel (hydroxypropylcellulose) (HPC) 93 % of control | dose: 200.0 mg/kg/injection, schedule: Q04DX003 (ip), vehicle: Klucel (hydroxypropylcellulose) (HPC) 90 % of control | dose: 400.0 mg/kg/injection, schedule: Q04DX003 (ip), vehicle: Klucel (hydroxypropylcellulose) (HPC) 93 % of control

CCOc1cc2c(cc1C/C=C/c1cc(OC)c(OC)c(OC)c1)OCO2
inactive: dose: 15.0 mg/kg/injection, schedule: Q01DX005 (ip), vehicle: saline with Tween-80 94 % of control | dose: 30.0 mg/kg/injection, schedule: Q01DX005 (ip), vehicle: saline with Tween-80 95 % of control | [4] 95 % of control

O=C1CSc2cc(F)ccc2N1
inactive: [5] 91 % of control | [6] 91 % of control | [7] 97 % of control

CC(C)CNC(=O)C(=O)NCC(C)C
inactive: dose: 25.0 mg/kg/injection, schedule: Q01DX001 (ip), vehicle: Klucel (hydroxypropylcellulose) (HPC) 98 % of control | dose: 50.0 mg/kg/injection, schedule: Q01DX001 (ip), vehicle: Klucel (hydroxypropylcellulose) (HPC) 101 % of control | dose: 100.0 mg/kg/injection, schedule: Q01DX001 (ip), vehicle: Klucel (hydroxypropylcellulose) (HPC) 101 % of control

Oc1oc(-c2ccccc2)nc1/C=C1/C(Cl)=Nc2ccccc21
inactive: dose: 100.0 mg/kg/injection, schedule: Q01DX001 (ip), vehicle: saline with Tween-80 99 % of control | dose: 200.0 mg/kg/injection, schedule: Q01DX001 (ip), vehicle: saline with Tween-80 99 % of control | dose: 400.0 mg/kg/injection, schedule: Q01DX001 (ip), vehicle: saline with Tween-80 100 % of control

O=C(CCN1C(=O)c2ccccc2C1=O)c1cnc(N2C(=O)c3ccccc3C2=O)[nH]1
inactive: dose: 20.0 mg/kg/injection, schedule: Q01DX005 (ip), vehicle: Klucel (hydroxypropylcellulose) (HPC) 98 % of control | dose: 40.0 mg/kg/injection, schedule: Q01DX005 (ip), vehicle: Klucel (hydroxypropylcellulose) (HPC) 97 % of control | dose: 80.0 mg/kg/injection, schedule: Q01DX005 (ip), vehicle: Klucel (hydroxypropylcellulose) (HPC) 91 % of control

CC(C)(C)C1CC[N+](=C(O[B-](F)(F)F)c2ccccc2)CC1 (configuration not stated)
inactive: [4] 100 % of control | [8] 103 % of control

COc1ccc(CO)cc1O
inactive: [6] 105 % of control and 97 % of control | [7] 104 % of control and 107 % of control | [9] 104 % of control | dose: 600.0 mg/kg/injection, schedule: Q01DX009 (ip), vehicle: saline 95 % of control and 96 % of control

CC(C)(C)SC(=O)CCl
inactive: dose: 100.0 mg/kg/injection, schedule: Q04DX003 (ip), vehicle: saline with Tween-80 116 % of control | dose: 200.0 mg/kg/injection, schedule: Q04DX003 (ip), vehicle: saline with Tween-80 89 % of control

OCCCCC12CCC(CCCCO)(CC1)CC2
inactive: dose: 100.0 mg/kg/injection, schedule: Q04DX002 (ip), vehicle: Klucel (hydroxypropylcellulose) (HPC) 91 % of control | dose: 400.0 mg/kg/injection, schedule: Q04DX002 (ip), vehicle: Klucel (hydroxypropylcellulose) (HPC) 86 % of control

O=C(c1ccncc1)N(CO)N(Cn1c(=O)sc2ccccc21)Cn1c(=O)sc2ccccc21
inactive: dose: 6.25 mg/kg/injection, schedule: Q01DX009 (ip), vehicle: Klucel (hydroxypropylcellulose) (HPC) 101 % of control | dose: 12.5 mg/kg/injection, schedule: Q01DX009 (ip), vehicle: Klucel (hydroxypropylcellulose) (HPC) 94 % of control | dose: 25.0 mg/kg/injection, schedule: Q01DX009 (ip), vehicle: Klucel (hydroxypropylcellulose) (HPC) 92 % of control

CCn1c(=O)c2[nH]c(Cl)nc2n(CCCl)c1=O
inactive: dose: 16.0 mg/kg/injection, schedule: Q01DX009 (ip), vehicle: Klucel (hydroxypropylcellulose) (HPC) 102 % of control and 118 % of control | dose: 32.0 mg/kg/injection, schedule: Q01DX009 (ip), vehicle: Klucel (hydroxypropylcellulose) (HPC) 111 % of control and 117 % of control | dose: 64.0 mg/kg/injection, schedule: Q01DX009 (ip), vehicle: Klucel (hydroxypropylcellulose) (HPC) 122 % of control | dose: 128.0 mg/kg/injection, schedule: Q01DX009 (ip), vehicle: Klucel (hydroxypropylcellulose) (HPC) 110 % of control

O=C1N=C2OC3(CCCCC3)OC(=O)N2C2(CCCCC2)O1
inactive: [10] 107 % of control | [11] 93 % of control | [12] 97 % of control | [13] 100 % of control and 96 % of control | [14] 109 % of control and 114 % of control

C=C1CC2(CCCCC2Cc2ccccc2)OC1=O (configuration not stated)
inactive: dose: 100.0 mg/kg/injection, schedule: Q04DX002 (ip), vehicle: saline 100 % of control | dose: 200.0 mg/kg/injection, schedule: Q04DX002 (ip), vehicle: saline 101 % of control | dose: 400.0 mg/kg/injection, schedule: Q04DX002 (ip), vehicle: saline 99 % of control

CCOC(=O)c1c(C)cc2c(CO)n[nH]c(=O)c2c1C
inactive: [15] 102 % of control | [16] 100 % of control | [17] 99 % of control

C1=CC2C3CSCC3C1C1CC21 (configuration not stated)
inactive: [1] 105 % of control | [2] 103 % of control | [3] 102 % of control

COc1ccc(CCNC(C)Cc2ccc(OC)c(OC)c2)cc1OC (configuration not stated)
inactive: dose: 3.13 mg/kg/injection, schedule: Q01DX009 (ip), vehicle: water 94 % of control | dose: 6.25 mg/kg/injection, schedule: Q01DX009 (ip), vehicle: water 92 % of control | dose: 12.5 mg/kg/injection, schedule: Q01DX009 (ip), vehicle: water 96 % of control | [18] 100 % of control | [19] 99 % of control

CCCCCC(CN(C)C)C(/C=C/c1ccccc1Cl)=N\O (configuration not stated)
inactive: [5] 106 % of control | [6] 112 % of control

CCNC(=O)C(CCO)NC(=O)OCc1ccccc1 (configuration not stated)
inactive: [10] 118 % of control | [11] 101 % of control | [12] 110 % of control

O=C1CSC(=S)N1Cc1ccncc1
inactive: [15] 97 % of control | [16] 98 % of control | [17] 101 % of control

CCNC1=C(C(=O)OCC)C(=O)CO1
inactive: [4] 100 % of control | [8] 100 % of control | [20] 99 % of control

O=C(CCCl)Nc1ccc(C(=O)CCc2cccc(NC(=O)CCCl)c2)cc1
inactive: [4] 100 % of control | [8] 97 % of control | [20] 89 % of control

CC(C)[C@](O)(C(=O)OCC1=CCN2CC[C@@H](O)[C@@H]12)[C@H](C)O
inactive: [18] 105 % of control | [19] 100 % of control and 104 % of control | [13] 103 % of control | [6] 97 % of control | dose: 100.0 mg/kg/injection, schedule: Q01DX009 (ip), vehicle: water 105 % of control and 107 % of control | [14] 112 % of control | [7] 114 % of control | dose: 200.0 mg/kg/injection, schedule: Q01DX009 (ip), vehicle: water 107 % of control and 113 % of control | dose: 400.0 mg/kg/injection, schedule: Q01DX009 (ip), vehicle: distilled water + Tween-80 113 % of control | [9] 112 % of control | dose: 800.0 mg/kg/injection, schedule: Q01DX009 (ip), vehicle: distilled water + Tween-80 103 % of control

O=[N+]([O-])CC(OCCCCCCCCCCO)C(Cl)(Cl)Cl (configuration not stated)
inactive: [15] 104 % of control | [16] 100 % of control | [17] 100 % of control

CSc1cc(C)c(O)c(CO)c1
inactive: dose: 100.0 mg/kg/injection, schedule: Q04DX003 (ip), vehicle: other 104 % of control | dose: 200.0 mg/kg/injection, schedule: Q04DX003 (ip), vehicle: other 100 % of control | dose: 400.0 mg/kg/injection, schedule: Q04DX003 (ip), vehicle: other 100 % of control

CC1=CC(C)(C)Nc2ccc(CSc3ccccc3)cc21
inactive: dose: 50.0 mg/kg/injection, schedule: Q01DX009 (ip), vehicle: DMSO 111 % of control | [15] 104 % of control | [16] 110 % of control | [17] 96 % of control
